Laboratory results taken from the supplement of paper PMC10307832.

Legend:
Test in all cases: relative viability (nuclei count vs DMSO), 5 days (fraction); higher = more cells survive
[1] = system: A-427
Summary of the method: (§1)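 Dosing by pin tool came one day after lung cancer cell lines were seeded in 1536-well plates, using either one drug or a fixed anchor-drug dose plus five library-drug doses (not always all listed) in √10 steps. After 5 days, nuclei were counted on 4× images. Relative viability is treated-well nuclei count divided by vehicle-well nuclei count, and values are medians of duplicate plates.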

[2] = system: LU99A
Summary of the method: as §1

[3] = system: NCI-H2009
Summary of the method: as §1

[4] = system: EMC-BAC-2
Summary of the method: as §1

[5] = system: HARA
Summary of the method: as §1

[6] = system: NCI-H1993
Summary of the method: as §1

[7] = system: NCI-H727
Summary of the method: as §1

[8] = system: LK-2
Summary of the method: as §1

[9] = system: NCI-H2170
Summary of the method: as §1

[10] = system: SW 1573
Summary of the method: as §1

[11] = system: HOP-62
Summary of the method: as §1

[12] = system: NCI-H596
Summary of the method: as §1

[13] = system: SK-MES-1
Summary of the method: as §1

[14] = system: NCI-H1792
Summary of the method: as §1

[15] = system: SK-LU-1
Summary of the method: as §1

[16] = system: NCI-H3122
Summary of the method: as §1

[17] = system: NCI-H1793
Summary of the method: as §1

[18] = system: PC-3 [JPC-3]
Summary of the method: as §1

[19] = system: SW 900
Summary of the method: as §1

[20] = system: COR-L23
Summary of the method: as §1

[21] = system: NCI-H1944
Summary of the method: as §1

[22] = system: LXF-289
Summary of the method: as §1

[23] = system: ABC-1
Summary of the method: as §1

With `CC(C)Oc1cc(Nc2nc(N[C@@H](C)c3ccc(F)cn3)ncc2Cl)n[nH]1` [AZ23] + Nc1ncn([C@H]2C[C@H](O)[C@@H](CO)O2)c(=O)n1 [Decitabine] (partner 2 µM) the relative viability ([1]; first compound 0.01 µM) was 0.508, the relative viability ([1]; first compound 0.03162 µM) was 0.558 and the relative viability ([1]; first compound 0.3162 µM) was 0.591. The relative viability ([2]; first compound 0.01 µM) was 1.03, the relative viability ([2]; first compound 0.03162 µM) was 0.85 and the relative viability ([2]; first compound 0.3162 µM) was 0.829. The relative viability ([3]; first compound 0.01 µM) was 0.406, the relative viability ([3]; first compound 0.03162 µM) was 0.356 and the relative viability ([3]; first compound 0.3162 µM) was 0.396. The relative viability ([4]; first compound 0.01 µM) was 0.966, the relative viability ([4]; first compound 0.03162 µM) was 0.998 and the relative viability ([4]; first compound 0.3162 µM) was 0.949. For the same molecule, the relative viability ([5]; first compound 0.01 µM) was 0.621, the relative viability ([5]; first compound 0.03162 µM) was 0.581 and the relative viability ([5]; first compound 0.3162 µM) was 0.504. For the same molecule, the relative viability ([6]; first compound 0.01 µM) was 0.514, the relative viability ([6]; first compound 0.03162 µM) was 0.626 and the relative viability ([6]; first compound 0.3162 µM) was 0.513. The relative viability ([7]; first compound 0.01 µM) was 0.956, the relative viability ([7]; first compound 0.03162 µM) was 0.945 and the relative viability ([7]; first compound 0.3162 µM) was 0.822. The relative viability ([8]; first compound 0.01 µM) was 0.337, the relative viability ([8]; first compound 0.03162 µM) was 0.306 and the relative viability ([8]; first compound 0.3162 µM) was 0.272. For the same molecule, the relative viability ([9]; first compound 0.01 µM) was 0.482, the relative viability ([9]; first compound 0.03162 µM) was 0.475 and the relative viability ([9]; first compound 0.3162 µM) was 0.483. For the same molecule, the relative viability ([10]; first compound 0.01 µM) was 0.699, the relative viability ([10]; first compound 0.03162 µM) was 0.553 and the relative viability ([10]; first compound 0.3162 µM) was 0.612. For the same molecule, the relative viability ([11]; first compound 0.01 µM) was 0.282, the relative viability ([11]; first compound 0.03162 µM) was 0.21 and the relative viability ([11]; first compound 0.3162 µM) was 0.195. For the same molecule, the relative viability ([12]; first compound 0.01 µM) was 1.17, the relative viability ([12]; first compound 0.03162 µM) was 1.07 and the relative viability ([12]; first compound 0.3162 µM) was 0.955. The relative viability ([13]; first compound 0.03162 µM) was 0.382, the relative viability ([13]; first compound 0.3162 µM) was 0.357 and the relative viability ([14]; first compound 0.01 µM) was 0.462. The relative viability ([14]; first compound 0.03162 µM) was 0.549, the relative viability ([14]; first compound 0.3162 µM) was 0.48 and the relative viability ([15]; first compound 0.03162 µM) was 0.651. The relative viability ([15]; first compound 0.3162 µM) was 0.643, the relative viability ([16]; first compound 0.01 µM) was 0.411 and the relative viability ([16]; first compound 0.03162 µM) was 0.455. The relative viability ([16]; first compound 0.3162 µM) was 0.469, the relative viability ([17]; first compound 0.01 µM) was 0.594 and the relative viability ([17]; first compound 0.03162 µM) was 0.559. For the same molecule, the relative viability ([17]; first compound 0.3162 µM) was 0.414, the relative viability ([18]; first compound 0.01 µM) was 0.812 and the relative viability ([18]; first compound 0.03162 µM) was 0.851. The relative viability ([18]; first compound 0.3162 µM) was 0.885, the relative viability ([19]; first compound 0.01 µM) was 0.442 and the relative viability ([19]; first compound 0.3162 µM) was 0.352. It also gave a relative viability ([20]; first compound 0.01 µM) of 0.361, a relative viability ([20]; first compound 0.03162 µM) of 0.497 and a relative viability ([20]; first compound 0.3162 µM) of 0.449. The relative viability ([21]; first compound 0.01 µM) was 0.456, the relative viability ([21]; first compound 0.03162 µM) was 0.46 and the relative viability ([21]; first compound 0.3162 µM) was 0.433. For the same molecule, the relative viability ([22]; first compound 0.01 µM) was 0.469, the relative viability ([22]; first compound 0.03162 µM) was 0.374 and the relative viability ([22]; first compound 0.3162 µM) was 0.403. For the same molecule, the relative viability ([23]; first compound 0.01 µM) was 1, the relative viability ([23]; first compound 0.03162 µM) was 1.22 and the relative viability ([23]; first compound 0.3162 µM) was 0.96.
